Results taken from patent US8088791B2, “Antibacterial agents” (Biots Scientific Management Pty Ltd, priority 2006, dated 2012).
In brackets after ≈: the same amount, converted by molar mass. Where two headings read alike, the source gives them in different places. Values belong to the compound of their own block, whether it stands above or below them.

Legend:
Bacillus subtilis 168CA = experiment: Minimum Inhibitory Concentration (MIC) testing, broth microdilution, Bacillus subtilis; format: cell-based; settings: Bacillus subtilis 168CA; read-out: Bacillus subtilis MICs Activity
Method in brief: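 MICs were scored A (≦8 μg/ml), B (16–64 μg/ml) or C (>64 μg/ml), read as the lowest concentration preventing visible growth by eye and spectrophotometry. Plates incubated overnight (16–20 h) at 37 °C, inoculum OD 0.09 diluted 1:100 in 2× broth, per NCCLS guidelines.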

[1] = test system: Staphylococcus aureus ATCC29213; experiment: Minimum Inhibitory Concentration (MIC) testing, broth microdilution, Staphylococcus aureus; format: cell-based; settings: Staphylococcus aureus ATCC29213; read-out: Staphylococcus aureus MICs Activity
Method in brief: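 Broth microdilution per NCCLS M7-A5 in Mueller Hinton broth, with compound in 1.6% DMSO and inoculum at OD 0.09 diluted 1:100. Plates incubated 16–20 h at 37°C. MIC is the lowest concentration with no visible growth; scored A ≤8, B 16–64, C >64 μg/ml.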

[2] = test system: staphylococcal clinical isolates; experiment: Minimum Inhibitory Concentration (MIC) testing, broth microdilution, staphylococcal clinical isolates; format: cell-based; settings: for MIC: read-out: MIC Activity against clinical isolate
Experimental: (§1) Compounds of this invention were tested for antimicrobial activity by susceptibility testing in liquid media. MICs for compounds against each strain were determined by a broth microdilution method according to the National Committee for Clinical Laboratory Standards (NCCLS) guidelines. (NCCLS. 2000. Methods for dilution antimicrobial susceptibility tests for bacteria that grow aerobically—fifth edition. Approved standard M7-A5. NCCLS, Wayne, Pa.)
(§2) Briefly, test compounds are prepared in 100 μl of 1.6% DMSO solution in multiwell plates. Several bacterial colonies from a freshly streaked plate are transferred to an appropriate rich broth, such as Mueller Hinton. The cell suspension is adjusted to an optical density of 0.09 and further diluted 1:100 with warm 2× broth. This cell suspension is dispensed into the wells containing compound solution so that the final volume is 200 μl. The plates are incubated overnight (16-20 hours) at 37° C. and turbidity is scored by eye and quantified spectrophotometrically. The MIC is defined as the lowest concentration inhibiting visible growth.
Some of the Examples were also tested for activity against staphylococcal clinical isolates. […] Activities were again scored as ‘A’ if the MIC was ≦8 micrograms/ml, ‘B’ if the MIC was 16 to 64 micrograms/ml and ‘C’ if the MIC was greater than 64 micrograms/ml.

[3] = test system: various bacterial species; experiment: Minimum Inhibitory Concentration (MIC) testing, broth microdilution, other bacterial species; format: cell-based
Experimental: as §1, §2
Some of the Examples were also tested for activity against other bacterial species. […] Activities were again scored as ‘A’ if the MIC was ≦8 micrograms/ml, ‘B’ if the MIC was 16 to 64 micrograms/ml and ‘C’ if the MIC was greater than 64 micrograms/ml.

SMILES: NC(=O)c1cccc(OCCCCCCCc2ccsc2)c1 [Example 63, 3-{[7-(3-Thienyl)heptyl]oxy}benzenecarboxamide]
melting point: 97 to 100 °C
MIC (Bacillus subtilis 168CA): < 8 µg/mL

SMILES: C#CCCCCCCCCCCOc1cccc(C(N)=O)c1 [Example 66, 3-(11-Dodecynyloxy)benzenecarboxamide]
melting point: 106 to 108 °C
MIC (Bacillus subtilis 168CA): < 8 µg/mL
MIC [1]: < 8 µg/mL

SMILES: CCCCCCCCCOc1ccc(Cl)c(C(N)=O)c1F [Example 76, 6-Chloro-2-fluoro-3-(nonyloxy)benzenecarboxamide]
melting point: 75 to 77 °C
MIC (Bacillus subtilis 168CA): < 8 µg/mL
MIC [1]: < 8 µg/mL

SMILES: CCCCCCOc1ccc(F)c(C(N)=O)c1Cl [Example 77, 2-Chloro-6-fluoro-3-(hexyloxy)benzenecarboxamide]
melting point: 66 to 68 °C
MIC (Bacillus subtilis 168CA): 16 to 64 µg/mL (≈ 58.5 to 234 µM)
MIC [1]: 16 to 64 µg/mL (≈ 58.5 to 234 µM)

SMILES: CCCCCCCCCOc1ccc(F)c(C(N)=O)c1Cl [Example 78, 2-Chloro-6-fluoro-3-(nonyloxy)benzenecarboxamide]
melting point: 64 to 66 °C
MIC (Bacillus subtilis 168CA): < 8 µg/mL
MIC [1]: < 8 µg/mL

SMILES: CCCCCCOc1c(F)cc(F)c(C(N)=O)c1F [Example 79, 2,4,6-Trifluoro-3-(hexyloxy)benzenecarboxamide]
melting point: 89 to 90 °C
MIC (Bacillus subtilis 168CA): 16 to 64 µg/mL (≈ 58.1 to 232 µM)
MIC [1]: 16 to 64 µg/mL (≈ 58.1 to 232 µM)

SMILES: CCCCCCOC(=O)COc1ccc(F)c(C(N)=O)c1F [Example 89, Hexyl 2-[3-(aminocarbonyl)-2,4-difluorophenoxy]acetate]
melting point: 108 °C
MIC (Bacillus subtilis 168CA): < 8 µg/mL
MIC [1]: < 8 µg/mL

SMILES: C#CCCCCCCOC(=O)COc1ccc(F)c(C(N)=O)c1F [Example 90, 7-Octynyl 2-[3-(aminocarbonyl)-2,4-difluorophenoxy]acetate]
melting point: 130 to 132 °C
MIC (Bacillus subtilis 168CA): < 8 µg/mL
MIC [1]: < 8 µg/mL

SMILES: Cc1ccc(S(=O)(=O)OCCCCCCCCCOc2cccc(C(N)=O)c2)cc1 [Example 92, 9-[3-(Aminocarbonyl)phenoxy]nonyl 4-methylbenzenesulfonate]
melting point: 78 to 80 °C
MIC (Bacillus subtilis 168CA): < 8 µg/mL

SMILES: CCCCCCCCCOc1cc(C(N)=O)ccn1 [Example 94, 2-(Nonyloxy)isonicotinamide]
melting point: 108 to 110 °C
MIC (Bacillus subtilis 168CA): < 8 µg/mL
MIC [1]: < 8 µg/mL

SMILES: COC(=O)C=CCOc1ccc(F)c(C(N)=O)c1F [Example 179, Methyl 4-[3-(aminocarbonyl)-2,4-difluorophenoxy]-2-butenoate]
melting point: 122 to 123 °C
MIC (Bacillus subtilis 168CA): > 64 µg/mL
MIC [1]: > 64 µg/mL

SMILES: CCCCOC(=O)C=CCOc1ccc(F)c(C(N)=O)c1F [Example 180, Butyl 4-[3-(aminocarbonyl)-2,4-difluorophenoxy]-2-butenoate]
melting point: < 40 °C
MIC (Bacillus subtilis 168CA): < 8 µg/mL
MIC [1]: 16 to 64 µg/mL (≈ 51.1 to 204 µM)

SMILES: Cc1cc(COc2ccc(F)c(C(N)=O)c2F)ccn1 [Example 198, 2,6-Difluoro-3-[(2-methyl-4-pyridinyl)methoxy]benzenecarboxamide]
melting point: 185 to 186 °C
MIC (Bacillus subtilis 168CA): 16 to 64 µg/mL (≈ 57.5 to 230 µM)

SMILES: Cc1ccc(-c2nc(COc3ccc(F)c(C(N)=O)c3F)cs2)cc1 [Example 236, 2,6-Difluoro-3-[2-(4-methylphenyl)-1,3-thiazol-4-yl]methoxybenzenecarboxamide]
MIC (Bacillus subtilis 168CA): < 8 µg/mL
MIC Activity against clinical isolate ([2]; S. aureus No. 753, Oxacillin S, Hospital): A (‘A’ if the MIC was ≦8 micrograms/ml)
MIC Activity against clinical isolate ([2]; S. aureus No. 757, Oxacillin R, Tet-R, MI-R, Hospital (tetM)): A (‘A’ if the MIC was ≦8 micrograms/ml)
MIC Activity against clinical isolate ([2]; S. aureus No. 1134, Oxacillin S, Hospital): A (‘A’ if the MIC was ≦8 micrograms/ml)
MIC Activity against clinical isolate ([2]; S. aureus No. 1135, Oxacillin R, Van-S, LZD-S, Hospital): A (‘A’ if the MIC was ≦8 micrograms/ml)
MIC Activity against clinical isolate ([2]; S. aureus No. 1651, Oxacillin R, Van-S, LZD-R, Hospital (G2576T, G)): A (‘A’ if the MIC was ≦8 micrograms/ml)
MIC Activity against clinical isolate ([2]; S. aureus No. 1652, Oxacillin R, Van-S, LZD-R, Hospital (T2500T, A)): A (‘A’ if the MIC was ≦8 micrograms/ml)
MIC Activity against clinical isolate ([2]; S. aureus No. 1662, Oxacillin S, Hospital): A (‘A’ if the MIC was ≦8 micrograms/ml)
MIC Activity against clinical isolate ([2]; S. aureus No. 1725, Oxacillin R, Van-S, LZD-R, Hospital (G2576T)): A (‘A’ if the MIC was ≦8 micrograms/ml)
MIC Activity against clinical isolate ([2]; S. aureus No. 1729, Oxacillin R, Tet-R, MI-R, Hospital): A (‘A’ if the MIC was ≦8 micrograms/ml)
MIC Activity against clinical isolate ([2]; S. aureus No. 2011, Oxacillin R, Tet-R, MI-S, Hospital (tetK)): A (‘A’ if the MIC was ≦8 micrograms/ml)
MIC Activity against clinical isolate ([2]; S. aureus No. 2012, Oxacillin R, Van-I, LZD-S, Hospital): A (‘A’ if the MIC was ≦8 micrograms/ml)
MIC Activity against clinical isolate ([2]; S. aureus No. 2018, Oxacillin R, Van-I, LZD-S, Hospital): A (‘A’ if the MIC was ≦8 micrograms/ml)
MIC Activity against clinical isolate ([2]; S. aureus No. 2142, Oxacillin R, CC-S, SXT-S, Community): A (‘A’ if the MIC was ≦8 micrograms/ml)
MIC Activity against clinical isolate ([2]; S. aureus No. 2143, Oxacillin R, Rif-R, Community): A (‘A’ if the MIC was ≦8 micrograms/ml)
MIC Activity against clinical isolate ([2]; S. aureus No. 2147, Oxacillin R, CC-S, SXT-S, Community): A (‘A’ if the MIC was ≦8 micrograms/ml)
MIC Activity against clinical isolate ([2]; S. aureus No. 2149, Oxacillin R, CC-R (iMLS), SXT-S, Community): A (‘A’ if the MIC was ≦8 micrograms/ml)
MIC Activity against clinical isolate ([2]; S. aureus No. 2150, Oxacillin R, CC-R, SXT-S, Community): A (‘A’ if the MIC was ≦8 micrograms/ml)
MIC Activity against clinical isolate ([2]; S. aureus No. 2158, Oxacillin R, CC-R, Doxy-I, Community): A (‘A’ if the MIC was ≦8 micrograms/ml)
MIC Activity against clinical isolate ([2]; S. aureus No. 2175, Oxacillin R, TMP-R, Community): A (‘A’ if the MIC was ≦8 micrograms/ml)
MIC Activity against clinical isolate ([2]; S. epidermidis No. 831, Oxacillin R): A (‘A’ if the MIC was ≦8 micrograms/ml)
MIC Activity against clinical isolate ([2]; S. epidermidis No. 1139, Oxacillin S): A (‘A’ if the MIC was ≦8 micrograms/ml)
MIC Activity against clinical isolate ([2]; S. epidermidis No. 1142, Oxacillin R): A (‘A’ if the MIC was ≦8 micrograms/ml)
MIC Activity against clinical isolate ([2]; S. epidermidis No. 1144, Oxacillin R): A (‘A’ if the MIC was ≦8 micrograms/ml)
MIC ([2]; Staphylococcus aureus, ATCC29213, S. aureus No. 0100, Oxacillin S, ATCC 29213): < 8 µg/mL
MIC ([2]; Staphylococcus aureus, S. aureus No. 1015, Oxacillin R, Van-S, LZD-S, Hospital): < 8 µg/mL
MIC ([2]; Staphylococcus epidermidis, S. epidermidis No. 835, Oxacillin S): < 8 µg/mL
MIC ([3]; Bacillus cereus, ATCC14579, read-out: MIC Activity Bacillus cereus ATCC 14579): < 8 µg/mL
MIC ([3]; Staphylococcus saprophyticus, ATCC15305, read-out: MIC Activity Staphylococcus saprophyticus ATCC 15305): < 8 µg/mL
MIC [1]: < 8 µg/mL

Continued, values first:

melting point: 98 to 100 °C
MIC (Bacillus subtilis 168CA): < 8 µg/mL
MIC [1]: < 8 µg/mL
SMILES: CCCC/C=C\CCCCOc1cccc(C(N)=O)c1 [Example 45, 3-[(Z)-5-Decenyloxy]benzenecarboxamide]

melting point: 71 to 73 °C
MIC (Bacillus subtilis 168CA): < 8 µg/mL
MIC [1]: < 8 µg/mL
SMILES: NC(=O)c1cccc(OCCCCC/C=C\c2ccsc2)c1 [Example 62, 3-{[(Z)-7-(3-Thienyl)-6-heptenyl]oxy}benzenecarboxamide]

melting point: 53 to 56 °C
MIC (Bacillus subtilis 168CA): < 8 µg/mL
MIC [1]: < 8 µg/mL
SMILES: NC(=O)c1cccc(OCCCCC/C=C\c2ccc(Cl)o2)c1 [Example 64, 3-{[(Z)-7-(5-Chloro-2-furyl)-6-heptenyl]oxy}benzenecarboxamide]

melting point: 82 to 83 °C
MIC (Bacillus subtilis 168CA): < 8 µg/mL
MIC [1]: < 8 µg/mL
SMILES: C#CCCCCCCCOc1cccc(C(N)=O)c1 [Example 65, 3-(8-Nonynyloxy)benzenecarboxamide]

melting point: 111 to 112 °C
MIC (Bacillus subtilis 168CA): < 8 µg/mL
MIC [1]: < 8 µg/mL
SMILES: C#CCCCCCCCCOc1cccc(C(N)=O)c1 [Example 67, 3-(9-Decynyloxy)benzenecarboxamide]

melting point: 96 to 97 °C
MIC (Bacillus subtilis 168CA): < 8 µg/mL
MIC [1]: 16 to 64 µg/mL (≈ 55.5 to 222 µM)
SMILES: N#CCCCCCCCCCOc1cccc(C(N)=O)c1 [Example 93, 3-[(9-Cyanononyl)oxy]benzenecarboxamide]

melting point: 119 to 121 °C
MIC (Bacillus subtilis 168CA): > 64 µg/mL
MIC [1]: > 64 µg/mL
SMILES: CC1CC1COc1cccc(C(N)=O)c1 (stereo not drawn) [Example 169, 3-[(2-Methylcyclopropyl)methoxy]benzenecarboxamide]

melting point: 152 to 154 °C
MIC (Bacillus subtilis 168CA): > 64 µg/mL
MIC [1]: > 64 µg/mL
SMILES: Cc1cncc(COc2cccc(C(N)=O)c2)c1 [Example 170, 3-[(5-Methyl-3-pyridinyl)methoxy]benzenecarboxamide]

melting point: 122 to 123 °C
MIC (Bacillus subtilis 168CA): > 64 µg/mL
MIC [1]: > 64 µg/mL
SMILES: NC(=O)c1cccc(OCc2cccc(O)c2)c1 [Example 173, 3-[(3-Hydroxybenzyl)oxy]benzenecarboxamide]
